Assays:
[1] = test system: hESCs; test: Differentiation of hESC free-floating clusters into pigmented (RPE) cells, counted as pigmented clusters and cells; type: cell-based, human; conditions: for appearance of clusters harboring pigmented cells: factor added in presence of NA
Protocol: Human ESC (HES1 cell line) and hESCs engineered by lentiviral vector to constitutively express eGFP [Gropp M, Itsykson P, Singer O, Ben-Hur T, Reinhartz E, Galun E, and Reubinoff B E. Stable genetic modification of human embryonic stem cells by lentiviral vectors. Molecular Therapy 7:281-7 (2003)] were cultured on human foreskin fibroblasts feeder layers in KO medium (KOM) consisting of 86% KO-DMEM (Gibco, Invitrogen, Gaithersburg, Md.), 14% KOSR (Gibco), 1 mM glutamine, 1% nonessential amino acids, 50 units/ml penicillin (Gibco), 50 μg/ml streptomycin, (Gibco) and 4 ng/ml bFGF (R&D Systems, Inc., Minneapolis, Minn.). hES cells were weekly passaged with type IV collagenase (1 mg/ml; Gibco) and plated onto a fresh feeder layer. A week before induction of differentiation, the cells were passaged by dissociation into nearly a single-cell suspension with Ca/Mg^++-free PBS supplemented with 0.05% EDTA (Biological Industries, Beit Haemek, Israel) and were re-plated on the feeders.
(§1) Six-eight days after plating the hES cells that were dissociated into single cells as above; they were removed from the feeders by treatment with type IV collagenase. The clumps were cultured for various periods up to 12 weeks in suspension within bacteriological dishes precoated with 0.1% low melting temperature agarose in KO medium (KOM) consisting of 86% KO-DMEM, 14% KOSR, 1 mM glutamine, 1% nonessential amino acids, 50 units/ml penicillin, and 50 μg/ml streptomycin, in the presence or absence of 10 mM nicotinamide (NA) (Sigma, St. Louis, Mo., USA). In some experiments the medium used was Neurobasal™ medium (Gibco) supplemented with N2 supplement (1:100) (Gibco) (NN medium), which was substituted after 1 week with DMEM/F12 (Gibco) supplemented with B27 (1:50) (Gibco).
(§2) Human ESCs were allowed to differentiate as free-floating clusters in KOM as above for up to six weeks in the presence of nicotinamide (NA) 10 mM. After the first week or 2 weeks of differentiation, cultures were supplemented with activin A 20-180 ng/ml (PeproTech Inc, Rocky Hill, N.J.), with TGFβ3 (1 ng/ml; R&D Systems Inc, Minneapolis, Minn.) with TGFβ1 (1 ng/ml-20 ng/ml; R&D Systems Inc) or with SB431542 (5 μM-50 μM, Sigma). Control cultures were supplemented with NA alone.
(§3) Human ESCs in suspension in KOM were also supplemented after one week with the bone morphogenetic protein (BMP) antagonist noggin (700 ng/ml R&D Systems Inc, Minneapolis, Minn.) in the presence and absence of NA, or during the 3rd and 4th weeks with TGFβ (20 ng/ml PeproTech Inc) in the presence of NA and allowed to differentiate up to an age of 6 weeks as free-floating clusters in suspension.

[2] = test system: hESC clusters; test: RT-PCR and Real-time PCR of marker transcripts in differentiating hESC clusters; type: cell-based, human
Protocol: as §1, §2, §3
Total RNA was extracted from hESCs grown under serum-free conditions (1 week after passage), and at sequential time points up to 8 weeks during culturing of hESC-derived clusters in the presence or absence of 10 mM nicotinamide and with or without supplementation with TGFβ-superfamily growth factors or antagonists. The RNA was isolated using TRIzol reagent (Invitrogen, http://www.invitrogen.com) or TRI-Reagent (Sigma). cDNA synthesis was carried out using Moloney murine leukemia virus reverse transcriptase (M-MLV RT) and random primers, according to the manufacturer's instructions (Promega Corporation, Madison, Wis., http://www. promega.com). Polymerase chain reaction (PCR) was carried out using standard protocols with Taq DNA Polymerase (Gibco-BRL). Amplification conditions were as follows: denaturation at 94° C. for 15 seconds, annealing at 55° C. for 30 seconds, and extension at 72° C. for 45 seconds. The number of cycles varied between 18 and 40, depending on particular mRNA abundance. Primer human sequences for identifying human gene transcripts (forward and reverse 5′-3′) and the length of the amplified products were as follows (SEQ ID NOs. 1-12):
For Real-time PCR the levels of transcripts were monitored using TaqMan primers and probes that were derived from the commercially available TaqMan® Assays-on-Demand Gene Expression Products (Applied Biosystems, Foster City, Calif.): Oct4, ID Hs01895061; Musashi, ID Hs01045894; Pax6, ID Hs00240871; Six3, ID Hs00193667; Rx1, ID Hs00429459; Chx10, ID Hs01584048; MiTF-A, ID Hs01115553; MiTF-total, ID Hs01115557; Bestrophin, ID Hs00188249; RPE65, ID Hs00165642; Sox10, ID Hs00366918; Crx, ID Hs00230899. Quantitative PCR analysis was performed using an ABI Prism 7000HT and ABI Prism 7900HT Sequence Detection Systems and TaqMan® Universal PCR Master Mix (Applied Biosystems) according to the manufacturer's protocol. Housekeeping gene β-glucuronidase (GusB, assay ID Hs99999908) was selected as an internal reference for normalization in the Real-Time RT-PCR quantification analysis and the relative expression level of each gene is shown as a relative value when the expression level of day 0 (or untreated cells) was set at 1. Amplification reactions were carried out in duplicates or triplicates according to manufacturer's protocol (Applied Biosystems).

[3] = 4 weeks, NA with activin A vs NA without activin A
[4] = Q-PCR time course, 2 weeks activin A treatment with NA vs NA alone
[5] = TGFβ3 added in presence of NA, 6 weeks

activin A
percentage of clusters that included pigmented cells [1, 3]: 50.7±6.5% | percentage of pigmented cells from the total number of cells [1, 3]: 9.9±1.4% | concentration with optimal augmenting effect on percentage of pigmented cells and expression of Bestrophin and RPE65 ([1]; activin A studied at various concentrations, in presence of NA): 140 ng/mL | pigmentation of clusters of pigmented cells ([1]; developed in presence of activin A and NA vs NA alone): darker | increase of the percentage of pigmented cells in presence of activin A ([1]; in presence of NA): 5-6 folds | expression of MiTF-A with activin A supplementation ([2]; 6 weeks, in presence of NA, vs NA alone): not affected | increase of RPE65 expression by activin A treatment ([2]; 6 weeks, in presence of NA, vs NA alone (FIG. 4D)): over five-fold | increase of Bestrophin expression by activin A treatment ([2]; 6 weeks, in presence of NA, vs NA alone (FIG. 4E)): over four-fold | expression of RPE marker Bestrophin [2, 4]: significantly increased | expression of retinal progenitor marker Chx10 [2, 4]: significantly increased | expression of retinal progenitor marker Rx1 [2, 4]: significantly increased | expression level of total MiTF-isoforms ([2]; at 4 weeks of differentiation, activin A with NA vs NA alone): increased | increase of bestrophin expression in presence of activin A ([2]; in presence of NA): about 10 folds

NC(=O)c1ccc(-c2nc(-c3ccc4c(c3)OCO4)c(-c3ccccn3)[nH]2)cc1 [SB431542]
appearance of pigmented clusters ([1]; 4 weeks, added together with activin A and NA): significantly decreased

TGFβ1: transforming growth factor-β protein subtype, member of the TGFβ superfamily
appearance of clusters harboring pigmented cells [1]: significantly enhanced

bFGF: basic FGF
appearance of clusters harboring pigmented cells [1]: abolished

B1: noggin: bone morphogenetic protein (BMP) antagonist (protein, UniProt Q13253 28-232, looked up)
Noggin: QHYLHIRPAPSDNLPLVDLIEHPDPIFDPKEKDLNETLLRSLLGGHYDPGFMATSPPEDRPGGGGGAAGGAEDLAELDQLLRQRPSGAMPSEIKGLEFSEGLAQGKKQRLSKKLRRKLQMWLWSQTFCPVLYAWNDLGSRFWPRYVKVGSCFSKRSCSVPEGMVCKPSKSVHLTVLRWRCQRRGGQRCGWIPIQYPIISECKCSC
differentiation of hESC clusters into pigmented RPE cells ([1]; noggin, absence of NA, 6 weeks): blocked | differentiation into pigmented cells ([1]; noggin, medium also supplemented with NA, 6 weeks): blocked | expression of MiTF-A ([2]; noggin, both presence and absence of NA, Real-Time RT-PCR): significantly reduced

B2: TGFβ3: transforming growth factor-β protein subtype, member of the TGFβ superfamily (protein, UniProt P10600 301-412, looked up)
Transforming growth factor …: ALDTNYCFRNLEENCCVRPLYIDFRQDLGWKWVHEPKGYYANFCSGPCPYLRSADTTHSTVLGLYNTLNPEASASPCCVPQDLEPLTILYYVGRTPKVEQLSNMVVKSCKCS
modifications: Transforming growth factor beta-3
notes: transforming growth factor-β protein subtype, member of the TGFβ superfamily
expression levels of RPE65 [2, 5]: but not of RPE65 | expression levels of transcripts of MiTF-A [2, 5]: significantly augmented

Reference: patent publication US20150125506A1, “RETINAL PIGMENT EPITHELIAL CELLS DIFFERENTIATED FROM EMBRYONIC STEM CELLS WITH NICOTINAMIDE AND ACTIVIN A” (HADASIT MEDICAL RESEARCH SERVICES AND DEVELOPMENT LTD., priority 2007, published 2015)
